Read-outs that look alike come from different tables or passages of the source. Blank lines part the entries; values can stand above or below the molecule they belong to.
Experiments:
HIV-1 [1] = assay: HIV-1 production in cultured monocytes at fixed 100 nM; assay type: cell-based; settings: monocytes infected 10 days prior to assay (10 ng p24/10^6 cells), percentage of untreated control
Experimental: Alternatively, the compounds may all be compared for inhibition of HIV replication at a fixed concentration. Presented in Table II are compounds that were used at a concentration of 100 nM to inhibit the production of HIV-1 in cultured monocytes infected with HIV-1 10 days prior to assay (10 ng of p24/10^6 cells). The production of HIV-1 in each treated culture is reported as percentage of untreated control.

HIV-1 [2] = assay: AZT and Compound No. 2 in combination, HIV-1 infected monocyte cultures, RT activity; assay type: cell-based; settings: for reverse transcriptase activity in supernatant: (−) No. 2
Experimental: Primary human monocytes were obtained from peripheral blood by Ficoll-Hypaque centrifugation and adherence to plastic as described previously. Gartner S. P., et al., 1986, Science 233:215. Briefly, after Ficoll-Hypaque (Pharmacia) separation, PBMCs were washed 4 times with DMEM (the last wash was done at 800 rpm to remove platelets) and resuspended in monocyte culture medium [DMEM supplemented with 1 mM glutamine, 10% heat-inactivated human serum, 1% penicillin+streptomycin mixture (Sigma)] at a density of 6×10^6 cells/ml. Cells were seeded in 24-well plates (1 ml per well) and incubated for 2 h at 37° C, 5% CO2. Following incubation, cells were washed 3 times with DMEM to remove non-adherent cells and incubation was continued in monocyte culture medium supplemented with 250 U/ml human M-CSF (Sigma). Cells were allowed to mature for 7 days prior to infection with the monocyte-tropic strain, HIV-1ADA. Nuovo, G. J., et al., 1992, Diagn. Mol. Pathol. 1:98. Two hours after infection, cells were washed with medium and cultured in RPMI supplemented with 10% human serum. In experiments where PCR analysis was performed, virus was pretreated with RNAse-free DNAse (Boehinger-Mannheim) for 2 h at room temperature and then filtered though a 0.2 μm pore nitrocellulose filter prior to infection.
For the reverse transcriptase (RT) assay, 10 μl of culture supernatant was added to 40 μl of reaction mixture (final composition was 50 mM Tris-HCl, pH 7.8; 20 MM KCl; 5 MM MgCl2; 1 mM DTT; 0.1% Triton X-100; 0.2 OD/ml polyA; 0.2 OD/ml oligo(dT)12-18; and 40 μCi/ml ^3H-dTTP (76 Ci/mmol, DuPont) and incubated 2 hr at 37° C. 5 μl of the reaction mixture was then spotted onto the DE 81 (Whatman) paper. Paper was air dried and washed 5 times with 5% Na2HPO4, followed by rinsing with distilled water. After air drying, paper was put on a Flexi Filter plate (Packard), covered with scintillation fluid and counted in a Top Count Microplate Counter (Packard). Results are expressed as counts per minute in 1 ml of supernatant (cpm/ml).
In view of these premises, the effects on HIV-1 replication in human monocyte cultures of the various concentrations of AZT, alone or in combination with 100 nM Compound No. 2, were tested using the protocols of Sections 6.2.1 and 6.2.2. Drugs were added to the monocyte cultures together with HIV-1 at about 10^5 TCID/ml. The concentration of drugs was maintained on refeeding. HIV-1 replication was assessed by assay of the supernatant for reverse transcriptase activity. The results are expressed as mean ± std. dev. (cpm×10^−3) in Table V.

[3] = Toxicity in mice, median lethal dose by intraperitoneal injection; assay type: in vivo, mouse; settings: for LD50: mouse, in vivo, ip, read-out: LD50 ± standard deviation
Experimental: The doses of compounds of the invention found to be lethal to 50% of the mice (LD50) were determined by intraperitoneal injection of groups of five animals with increasing doses of each compound. CNI-0294 was administered from 0, 2, 10, 20, 40, 80, 160, 320, 640, 1280 mg/kg in 0.5 ml of water/HCl; CNI-1594 at 0, 2.4, 5, 10, 20, 40, 80 mg/kg in 0.5 ml of water/HCl; CNI-1794 at 0, 20, 50, 80 mg/kg in 0.5 ml of water/HCl; and CNI-1894 at 0, 10, 20, 40, 80, 240, 480, 960 mg/kg in water/HCl. […] The percentage of animals in each group which died were utilized to calculate the LD50 by non-linear curve fitting with the Enzfit software (Elsevier Bioscience; Cambridge, UK) programmed with the Chou equation (Chou 1976, J Theor Biol 39:253-276)).

HIV-1ADA = assay: Anti-HIV activity in primary human monocytes, day 9 (Table IX, FIG. 12C); assay type: cell-based; settings: Human immunodeficiency virus 1, Monocyte, 216 h; day 9 after infection; >10 μM = 50% inhibition not achieved at maximal concentration; read-out: IC50
Experimental: Monocytes infected with HIV-1ADA were cultured in the presence of CNI-H0294 and CNI-H3094 in various concentrations. Nine days after infection, RT activity in culture supernatants was quantified. The results are presented as percent of total RT activity in untreated cultures (control). Three independent samples were assayed for each drug concentration, and the standard deviation was less than 15%.
[…] A 50% inhibitory concentration (IC50) was determined at day 9 after infection.

[4] = Pharmacokinetics in mice (plasma, HPLC); assay type: in vivo, mouse
Experimental: Standard addition curves for each test compound were constructed by adding increased amounts of drug to mouse or human A^+ plasma (Long Island Blood Services; Melville, N.Y). […] The column was washed with 1.0 ml of water and then eluted with 1.0 ml of 10 mM tetramethylammonium chloride/10 mM heptane sulfonate/4.2 mM H3PO4/95% CH3CN/5% H2O (Buffer C). The eluted sample was reduced to dryness in a rotary evaporator and resuspended in 1.0 ml Buffer A.
Two hundred μl of the resuspended sample was injected onto a Hewlett-Packard model 1090 high performance liquid chromatography system (HPLC)(Wilmington, Del.) equipped with a photodiode array ultraviolet/visible spectrophotometric detector, autosampler, and Chemstation operating software. The column used was a 250×4.6 mm Zorbax RX-C8 column (Mac-Mod Analyticals; Chadd's Ford, Pa.) kept at room temperature and run at 1.5 ml/min. The mobile phase used was Buffer A and 10 mM tetramethylammonium chloride/10 mM heptane sulfonate/4.2 mM H3PO4/75% CH3CN/25% H2O (Buffer B), with all runs initiated at 10% Buffer B. A linear 30 min gradient to 60% Buffer B was then performed, followed by a 4 min reverse gradient to initial conditions.
Female ND4 Swiss Webster mice (21-24 g) were obtained from Harlan Sprague Dawley (Indianapolis, Ind.) and randomly placed in groups of five in cages with free access to food and water. […] The other CNI compounds were administered intraperitoneally or by oral gavage as a solution in water titrated with sufficient HCl to dissolve the drug. At various time points, ranging from 5 min to 4 days, a single group of animals was euthanized by carbon dioxide inhalation and bled by cardiac puncture using heparin as an anticoagulant. The blood from the five mice in the group was pooled and centrifuged at 14000× g for 10 min. The volume of plasma was measured, and equal volume of Buffer A added, and the mixture extracted and analyzed as described above, except that the dried eluates were resuspended in 200 μl Buffer A and 100 μl was injected onto the high performance liquid chromatography (HPLC) system.
The area under the plasma concentration-time curve (AUC) was determined, and bioavailability was measured as AUCoral/AUCi.p. A and B represent the zero time intercept of the distribution and elimination phases respectively, and a and β the respective slopes of the phases multiplied by 2.303. The t/2α and t1/2β are calculated half-lives of the drug in each phase (0.693/α and 0.693/β respectively). The volume of distribution (VD) was calculated as dose/B, and the total clearance rate (Cltot) calculated as β*VD. Cmax and tmax are the maximal plasma concentration and time of this measurement, respectively.

Plasmodium falciparum = assay: Antimalarial activity in vitro, [3H]-hypoxanthine incorporation; assay type: cell-based; settings: for IC50: Plasmodium falciparum
Description: The antimalarial properties of the compounds of the invention can be analyzed by techniques, assays and experimental animal models well known in the art. For example, the inhibition of growth of Plasmodium falciparum in vitro by the compounds may be assessed by the hypoxanthine-incorporation method (Desjardins et al., 1979, Antimicrob. Ag. Chemother. 16:710-718). […] The in vivo efficacy of the compounds can also be tested in mouse models in which parasitemia is enumerated following administration of the compound (Ager, A. L. 1984, Rodent malaria models, pp 225-264. In Handbook of Experimental Pharmacology vol. 68, Antimalarial Drugs, Peters and Richards eds, Springer-Verlag, Berlin).
The antimalarial activity of the compounds was determined essentially as described in Desjardins et al. supra. Fifty μl of various concentrations of a compound of the invention, chloroquine, or pyrimethamine were added to the wells of microtiter plates, followed by 200 μl of ring-stage, synchronized, P. falciparum-infected erythrocytes (final hematocrit=1.5%, final parasitemia=1-5%). The plates were incubated for 24 hr in a candle jar kept at 37° C., and then 25 μl of [^3H]-hypoxanthine (Amersham, Arlington Heights, ILL.; 2.5 μl Ci/well) was added. The plates were then incubated for a further 24 hr, before harvesting onto Unifilter-96 GF/C filter-microplates (Packard; Meriden, Conn.). Twenty-five μl of Microscint scintillation fluid (Packard) was added to each well of the filter-microplate, which was subsequently counted in a Top-count microplate scintillation counter (Packard). The percent of [^3H]-hypoxanthine uptake relative to control infect-erythrocytes was used to determine the IC50 value for the compounds by non-linear regression for LD50 determination.

[5] = In vitro metabolism with mouse liver post-mitochondrial supernatant and NADPH; assay type: in vitro ADME
Experimental: Several female ND4 Swiss Webster mice were euthanized by carbon dioxide inhalation and the livers excised and rinsed with ice cold phosphate buffered saline (pH 7.4). The livers were minced, gently homogenized in 50 mM phosphate buffer (pH 7.4) with a Dounce homogenizer, and centrifuged at 9600× g for 20 min. The post-mitochondrial supernatant was kept, glycerol added to 20%, and frozen at −70° C in 1.0 ml aliquots until used. For each incubation, 1.0 ml of a 1.0 mg/ml drug solution was added to 3.0 ml of 50 mM phosphate buffer (pH 7.4), 1.0 ml of 2 mg/ml NADPH in 50 mM phosphate (pH 7.4), and 1.0 ml of the post-mitochondrial supernatant. Five hundred μl of each incubate was then immediately transferred to an ice-cold tube to provide the zero-time sample, and addition 500 μl aliquots removed to ice-cold tubes at 8, 15, 30, and 60 min. The samples were then extracted, and analyzed by HPLC as described in section 7.1. Control incubations were also performed where drug or post-10 mitochondrial supernatant was omitted. […] Peaks in the CNI compound incubations which increased over time, and were not present in control samples lacking the enzyme preparation were treated as putative metabolites.

[6] = female, ND4 Swiss Webster, mouse, plasma, ip, 50 mg/kg, vehicle water
[7] = mouse, i.p., 50 mg/kg, vehicle water

Structure (SMILES): CC(=O)c1cccc(C(C)=O)c1N [2,6-diacetylaniline]
- Viral Production (HIV-1 [1]): 28%

Structure (SMILES): CC(=O)c1cncc(C(C)=O)c1 [3,5-diacetylpyridine]
- Viral Production (HIV-1 [1]): 58%

Structure (SMILES): Cc1cn([C@H]2C[C@H](N=[N+]=[N-])[C@@H](CO)O2)c(=O)[nH]c1=O [AZT]
- reverse transcriptase activity in supernatant (HIV-1 [2]; day-7, 10 pM AZT, mean ± std. dev.): 0.92 ± 0.21 cpm×10^−3
- reverse transcriptase activity in supernatant (HIV-1 [2]; day-7, 100 pM AZT): 0.79 ± 0.14 cpm×10^−3
- reverse transcriptase activity in supernatant (HIV-1 [2]; day-7, 1 nM AZT): 0.60 ± 0.28 cpm×10^−3
- reverse transcriptase activity in supernatant (HIV-1 [2]; day-7, 10 nM AZT): 0.05 ± 0.02 cpm×10^−3
- reduction in RT activity (HIV-1 [2]; day-11, 10 pM AZT alone): about 20%
- reverse transcriptase activity in supernatant (HIV-1 [2]; day-11, 10 pM AZT): 1.63 ± 0.81 cpm×10^−3
- reverse transcriptase activity in supernatant (HIV-1 [2]; day-11, 100 pM AZT): 1.34 ± 0.59 cpm×10^−3
- reverse transcriptase activity in supernatant (HIV-1 [2]; day-11, 1 nM AZT): 1.07 ± 0.49 cpm×10^−3
- reverse transcriptase activity in supernatant (HIV-1 [2]; day-11, 10 nM AZT): 0.08 ± 0.03 cpm×10^−3

Structure (SMILES): CC(=O)c1cc(N)cc(C(C)=O)c1 [CNI-1894, 3,5-diacetylaniline]
- visible signs of toxicity [3]: died 2-3 days post injection, and showed no sign of any immediate toxicity
- LD50 [3]: 258.6 ± 1.37 mg/kg
- IC50 (HIV-1ADA): > 10000 nM
- AUC [4, 6]: 20200 ng·h/mL
- Cmax [4, 6]: 13400 ng/mL
- Tmax ([4]; female, ND4 Swiss Webster, plasma, ip, mouse, i.p., 50 mg/kg, vehicle water, read-out: tmax (converted)): 5 min
- maximal plasma level ([4]; mice, single i.p. injection (50 mg/kg; CNI-1594 20 mg/kg)): 13.43 µg/mL
- A (zero time intercept of the distribution phase) [4, 7]: 14.93 µg/mL
- B (zero time intercept of the elimination phase) [4, 7]: 0.15 µg/mL
- Cltot [4, 7]: 3.30 mL/min
- t1/2α [4, 7]: 34.8 min
- t1/2β [4, 7]: 1386 min
- α [4, 7]: 1.19 h⁻¹
- β [4, 7]: 0.03 h⁻¹
- antimalarial activity (Plasmodium falciparum; clone Dd2, highest concentration tested 200 μM): inactive at the highest concentration tested
- metabolites produced [5]: one minor and one major metabolite
- metabolic conversion (drug altered, as judged by peak area) ([5]; 60 min incubation): 17.28%
- Viral Production (HIV-1 [1]): 20%

- IC50 (Plasmodium falciparum; DD2, clone Dd2, Chloroquine column, unit inferred): 123 ± 7.26 nM
- IC50 (Plasmodium falciparum; FCR3, clone FCR-3, Chloroquine column, unit inferred): 105 ± 9.98 nM
- IC50 (Plasmodium falciparum; HB3, clone HB3, Chloroquine column, unit inferred): 6.73 ± 0.16 nM
- IC50 (Plasmodium falciparum; clone D10, Chloroquine column, unit inferred): 27 ± 2.42 nM
- IC50 (Plasmodium falciparum; clone W2mef, Chloroquine column, unit inferred): 144 ± 13.3 nM
Structure (SMILES): CCN(CC)CCCC(C)Nc1ccnc2cc(Cl)ccc12 (centres unmarked) [Chloroquine]

Structure (SMILES): CC(=O)c1ccc(Nc2cc(C)nc(N)n2)cc1 [Compound No. 17, 2-amino-4-(4-acetylphenyl)amino-6-methylpyrimidine]
- LD50 [3]: 48.93 ± 0.12 mg/kg

Structure (SMILES): CC(=O)c1cc(C(C)=O)cc(N(C)C)c1 [N,N-dimethyl-3,5-diacetylaniline]
- Viral Production (HIV-1 [1]): 25%

- IC50 (Plasmodium falciparum; DD2, clone Dd2, ± standard deviation, read-out: IC50): 104000 ± 9790 nM
- IC50 (Plasmodium falciparum; clone W2mef, ± standard deviation, read-out: IC50): 17800 ± 13500 nM
Structure (SMILES): CCc1nc(N)nc(N)c1-c1ccc(Cl)cc1 [Pyrimethamine]

From patent US6649797B2, “Compounds and methods of use to treat infectious diseases” (The Picower Institute for Medical Research, priority 1996, dated 2003)
